According to patent US8785424B2, “ngCycloartanone derivatives with anticancer activity” (Pierre Fabre Medicament, priority 2009, dated 2014):
Structures can show the parent of a compound that is named as a salt.

Tested on: proteasome
Assay: Cellular proteasome inhibition test: accumulation of 4Ub-Luc reporter (luciferase activity) in DLD-1 4Ub-Luc cell line
Type: cell-based, human
Conditions: DLD-1 4Ub-Luc cells, 8 hours, epoxomicin = 100%
Protocol: Biological tests were carried out according to protocols described in the following articles: Ausseil F. et al. J. Biomol Screen. 2007, 12, 106-116 and Vandenberghe I. et al. Biochemical Pharmacology 2008, 76, 453-462.
In order to select novel proteasome inhibitor compounds, it is necessary to indirectly measure the activity of this proteasome within cells. To this end, we constructed a stable cell line, DLD-1 4Ub-Luc, arising from a human colon cancer cell line, which produces a chimeric reporter protein called 4Ub-Luc. This protein is a fusion between a 4-ubiquitin (4Ub) label and luciferase (Luc). This label is capable to direct every proteins that carry it toward the proteasome. The 4Ub-Luc protein is thus efficiently degraded by the proteasome, in contrast to the “wild” non-fused Luc protein. When the DLD-1 4Ub-Luc cell line is treated with a proteasome inhibitor, the fusion protein is much less efficiently degraded and accumulates in the cell. This accumulation is detected by an increase in luciferase activity in the treated extract compared to the extract from untreated cells. The control consists of verifying that the inhibitor has no effect on accumulation of the wild Luc protein produced by the stable DLD-1 RF cell line. For both cell lines and for each product an induction factor is determined for the product tested (or the reference) corresponding to the ratio between the luciferase activities measured in cells treated with this product (or the reference) and cells treated with solvent alone.
The product's activity is then defined by its relative induction factor, i.e., the ratio of its induction factor (IF % luminescence) to that of the reference molecule epoxomicin (IF=100%; see data presented in the table below).
Thus, the test established by Pierre-Fabre is a cellular test that has the advantage, compared to a purely enzymatic test, of detecting only products capable of penetrating the cell.
Two cell lines are used for this test: DLD-1 RF and DLD-1 4Ub-Luc. The culture medium used is as follows: • MEM • 5% fetal calf serum • 5 ml of penicillin-streptomycin • 2.5 ml of FUNGIZONE® (Amphotericin B) • 10 ml of […]
Day 1: Inoculate white 96-well culture-treated plates (PerkinElmer White ViewPlate, product no. 6005181) with 100 μl of 1·10^5 c/ml cell suspension per well. Incubate for 24 hours so that the cells adhere. On each plate five columns will be inoculated with DLD-1 4Ub-Luc and five others with DLD-1 RF according to diagram 1 below.
Day 2: Remove the medium by turning the plates upside down on cotton, and then carry out the treatment with the compounds of the invention, with solvent alone or with a reference compound such as epoxomicin. […]
The columns are paired (examples 2 and 8, 3 and 9, 4 and 10 and 5 and 11) and treated with the same compound. Columns 6 and 7 receive the experimental control, namely 0.1% DMSO in culture medium for wells B, C, D, and E of columns 6 and 7, and the positive control (10^−7 M epoxomicin) in wells F and G.
After incubation, turn the plate upside down on cotton to empty the wells, rinse with 50 μl of PBS to remove any trace of the cytotoxin tested and then add 50 μl of 5× passive lysis buffer (Promega, product no. E1941) diluted to ⅕ in water. Shake energetically using a plate shaker for 5 to 10 minutes at room temperature before freezing at −20° C.
Luciferase activity is measured using a Luciferase Assay System 10-Pack kit (Promega, product no. E1501).
On the day luciferase activity is to be measured, defrost the plates and wait until they have returned to room temperature. The optimal temperature for luciferase activity is 20-25° C.
Reconstitute the firefly luciferase substrate by defrosting the buffer and then adding 10 ml of buffer to the bottle containing the freeze-dried substrate. Wait until the solution is at room temperature before beginning the assay. […]

[1] = concentration tested 5 · 10^−6 M
[2] = concentration tested 5 · 10^−7 M

| Structure (SMILES) | relative induction factor (IF % luminescence) versus epoxomicin [1] [%] | relative induction factor (IF % luminescence) versus epoxomicin (concentration tested 10^−5 M) [%] | relative induction factor (IF % luminescence) versus epoxomicin (concentration tested 10^−6 M) [%] | relative induction factor (IF % luminescence) versus epoxomicin [2] [%] | relative induction factor (IF % luminescence) versus epoxomicin (concentration tested 5 · 10^−6 M, hydrochloride) [%] | relative induction factor (IF % luminescence) versus epoxomicin (concentration tested 10^−5 M, hydrochloride) [%] | relative induction factor (IF % luminescence) versus epoxomicin (concentration tested 10^−6 M, hydrochloride) [%] |
| --- | --- | --- | --- | --- | --- | --- | --- |
| CC(=O)O[C@H]1C[C@@]2(C)C3CCC4[C@H](C)C(=O)C=C[C@@]45C[C@@]35CC[C@]2(C)[C@H]1[C@H](C)[C@@H](OC(C)=O)C1=C(CN=[N+]=[N-])C(C)CO1 (some centres unmarked) [Compound 47, Azido-methyl-dihydro-furan-neoboutomellerone Derivative] | 78 | 36 | 7 | – | – | – | – |
| C=C(C(=O)C(OC(C)=O)C(C)[C@H]1[C@@H](OC(C)=O)C[C@@]2(C)[C@@H]3CC[C@H]4[C@H](C)C(=O)C=C[C@@]45C[C@@]35CC[C@]12C)C(C)CO (stereo partly drawn) [Compound 13, Diastereoisomer on the Side Chain of Neoboutomellerone] | 71 | 60 | 2 | – | – | – | – |
| C=C(C(=O)[C@H](O)[C@@H](C)[C@H]1[C@@H](OC(C)=O)C[C@@]2(C)[C@@H]3CC[C@H]4[C@H](C)C(=O)C=C[C@@]45C[C@@]35CC[C@]12C)[C@@H](C)COC(=O)CCN(CC)CC [Compound 66, 26-deacetyl-neoboutomellerone 26-N-diethyl-β-alaninate] | 9 | 2 | 13 | – | – | – | – |
| C=C(C(=O)[C@H](O)[C@@H](C)[C@H]1[C@@H](OC(C)=O)C[C@@]2(C)[C@@H]3C[C@@H](O)[C@H]4[C@H](C)C(=O)C=C[C@@]45C[C@@]35CC[C@]12C)[C@@H](C)CO [Compound 16, 6-hydroxy-22-deacetyl-neoboutomellerone] | 35 | – | 1 | – | – | – | – |
| C=C(C(=O)[C@H](O)[C@@H](C)[C@H]1[C@@H](OC(C)=O)C[C@@]2(C)[C@@H]3CC[C@H]4[C@H](C)C(=O)C=C[C@@]45C[C@@]35CC[C@]12C)C(C)C [Compound 7, 22-deacetyl,26-dehydroxy-neoboutomellerone] | 65 | 21 | 2 | – | – | – | – |
| C=C(C(=O)[C@H](OC(C)=O)[C@@H](C)[C@H]1[C@@H](OC(C)=O)C[C@@]2(C)[C@@H]3CC[C@H]4[C@H](C)/C(=N/O)C=C[C@@]45C[C@@]35CC[C@]12C)[C@@H](C)CO [Compound 27, 3-anti-oxime-neoboutomellerone] | 103 | – | 1 | 1 | – | – | – |
| C=C(C(=O)[C@H](O)[C@@H](C)[C@H]1[C@@H](OC(C)=O)C[C@@]2(C)[C@@H]3CC[C@H]4[C@H](C)C(=O)C=C[C@@]45C[C@@]35CC[C@]12C)[C@@H](C)COC(=O)Nc1ccc(N(C)C)cc1 [Compound 26, 26-N-(4-N,N-dimethylaniline)carbamate-22-deacetyl-neoboutomellerone] | 54 | 37 | 53 | 11 | – | – | – |
| C=C(C(=O)[C@H](OC(C)=O)[C@@H](C)[C@H]1[C@@H](OC(C)=O)C[C@@]2(C)C3CCC4[C@H](C)C(=O)C=C[C@@]45C[C@@]35CC[C@]12C)[C@@H](C)COC(=O)CCl (some centres unmarked) [Compound 49, 26-chloro-acetate-neoboutomellerone Derivative] | 44 | 15 | 19 | – | – | – | – |
| C=C(C(=O)[C@H](OC(C)=O)[C@@H](C)[C@H]1[C@@H](OC(C)=O)C[C@@]2(C)C3CCC4[C@H](C)C(=O)C=C[C@@]45C[C@@]35CC[C@]12C)[C@@H](C)COC(=O)CN(C)C (some centres unmarked) [Compound 62, Neoboutomellerone 26-N-dimethyl glycinate] | 49 | 7 | 11 | – | – | – | – |
| C=C(C(=O)[C@H](O)[C@@H](C)[C@H]1[C@@H](OC(C)=O)C[C@@]2(C)C3CCC4[C@H](C)C(=O)C=C[C@@]45C[C@@]35CC[C@]12C)[C@@H](C)COC(=O)CN(C)C (some centres unmarked) [Compound 65, 22-deacetyl-neoboutomellerone 26-N dimethyl glycinate hydrochloride] | – | – | – | 1 | 34 | 4 | 17 |
| C=C(C(=O)[C@H](OC(C)=O)[C@@H](C)[C@H]1[C@@H](OC(C)=O)C[C@@]2(C)[C@@H]3CC[C@H]4[C@H](C)C(=O)C=C[C@@]45C[C@@]35CC[C@]12C)[C@@H](C)COC [Compound 19, 26-methoxy-neoboutomellerone] | 45 | – | 40 | 1 | – | – | – |
| C=C(C(=O)[C@H](OC(C)=O)[C@@H](C)[C@H]1[C@@H](OC(C)=O)C[C@@]2(C)[C@@H]3CC[C@H]4[C@H](C)C(=O)CC[C@@]45C[C@@]35CC[C@]12C)[C@@H](C)CO [Compound 11, 1,2-dihydro-neoboutomellerone] | 45 | 48 | 1 | – | – | – | – |
| C=C(C(=O)[C@H](OC(C)=O)[C@@H](C)[C@H]1[C@@H](OC(C)=O)C[C@@]2(C)[C@@H]3[C@H]4O[C@H]4[C@H]4[C@H](C)C(=O)C=C[C@@]45C[C@@]35CC[C@]12C)[C@@H](C)CO [Compound 12, 6,7-epoxy-neoboutomellerone] | 72 | 15 | 3 | – | – | – | – |
| C=C(C(=O)[C@H](OC(C)=O)[C@@H](C)[C@H]1[C@@H](OC(C)=O)C[C@@]2(C)[C@@H]3CC[C@H]4[C@H](C)C(=O)C=C[C@@]45C[C@@]35CC[C@]12C)[C@@H](C)COC(=O)Nc1ccccc1 [Compound 20, 26-N-phenylcarbamate-neoboutomellerone] | 60 | – | 42 | 6 | – | – | – |
| C=C(C(=O)[C@H](OC(C)=O)[C@@H](C)[C@H]1[C@@H](OC(C)=O)C[C@@]2(C)[C@@H]3CC[C@H]4[C@H](C)C(=O)C=C[C@@]45C[C@@]35CC[C@]12C)[C@@H](C)CO [Compound 2, Neoboutomellerone] | 37 | 4 | 48 | 2 | – | – | – |
| C=C(C(=O)[C@H](OC(C)=O)[C@@H](C)[C@H]1[C@@H](OC(C)=O)C[C@@]2(C)[C@@H]3CC[C@H]4[C@H](C)C(=O)C=C[C@@]45C[C@@]35CC[C@]12C)C(C)C [Compound 8, 26-dehydroxy-neoboutomellerone] | 74 | 19 | 7 | – | – | – | – |
